Experimental data reported in US20190060298A1, “NEW DRUG FOR THE TREATMENT AND/OR PREVENTION OF DEPRESSIVE DISORDERS” (SORBONNE UNIVERSITE, priority 2013, published 2019).
“Also recorded” adds a separate entry of the source.

Assays:
[1] = system: Nrf2; assay: Nrf2 translocation in hippocampal HT22 cells; format: cell-based; details: 30 min, quercetin 10 μM; for nuclear Nrf2 translocation: BDNF 100 ng/ml, 7,8-DHF 10 μM
Description: (§1) Hippocampi were homogenized in ice-cold buffer A (10 mM Hepes, 150 mM NaCl, 1 mM EDTA, protease inhibitor cocktail [5 μl/ml] and phosphatase inhibitor cocktail [10 μl/ml]) and Nonidet P-40 (0.5%) was then added. After 10 min on ice, homogenates were centrifuged (1,200×g, 10 min, 4° C.). Supernatants were saved as the cytoplasmic fraction. Pellets were washed in ice-cold buffer A and sedimented by centrifugation at 1,200×g for 10 min at 4° C. Nuclear yield and integrity were checked by Giemsa staining and microscopy. Nuclei were resuspended in ice-cold buffer B (20 mM Hepes, 420 mM NaCl, 1.2 mM MgCl2, 0.2 mM EDTA, 25% glycerol, 0.5 mM DTT, protease inhibitor cocktail [5 μl/ml] and phosphatase inhibitor cocktail [10 μl/ml]). Samples were sonicated (15 s, 4° C.) and vortexed every 5 min for 20 min. The cytoplasmic and nuclear fractions were centrifuged at 20,000×g, for 30 min at 4° C. Supernatants were rapidly frozen in liquid nitrogen and stored at −80° C. A similar protocol was used for cell nuclear and cytosolic extracts.
40 μg of nuclear or cytosolic protein (or 20 μg for cell experiments) was resolved by SDS-polyacrylamide gel electrophoresis in a 12% polyacrylamide gel. The bands were transferred to nitrocellulose or PVDF membranes (Invitrogen, France) for immunoblotting according to standard procedures. We used the following antibody dilutions: 1:250 for rabbit polyclonal antibodies against Nrf2 (Santa Cruz Biotechnology, France), 1:500 for rabbit polyclonal antibodies against Keap1 (Santa Cruz Biotechnology) and 1:5000 for rabbit polyclonal antibodies against aconitase 2 (Gene Tex, France). A dilution of 1:10,000 was used for the fluorescent IRDye® 800CW secondary antibody (ScienceTec, Paris, France). Membranes were also probed with a mouse monoclonal antibody against GAPDH or a mouse monoclonal antibody against beta-actin (dilutions of 1:10,000 and 1:1,000, respectively, Sigma-Aldrich, France) and with the IRDye® 680CW secondary antibody from ScienceTec (1:10,000), to correct for protein loading. Images were acquired with the Odyssey® infrared imaging system (LI-COR Biosciences). Protein bands were quantified with Odyssey® software (version 3.0, LI-COR Biosciences). For SOD1, Prx2 and PrxSO2/SO3 analysis, we used the following antibody dilutions: 1:1000 for rabbit polyclonal antibodies against SOD (Euromedex), 1:2000 for rabbit polyclonal antibodies against PeroxiredoxinSO2/SO3 (Abcam), 1:1000 for rabbit polyclonal antibodies against Peroxiredoxin2 (Abcam). Horseradish peroxidase-conjugated secondary antibodies were used and membranes were developed with the ECL Plus detection reagent (Pierce, Rockford, Ill.). Images were acquired with a digital camera-based imaging system (ChemiDoc, Biorad) and analyzed with Quantity One software (Bio-Rad). […]

[2] = system: patients suffering of bipolar depression; details: cited from earlier work
[3] = intracerebroventricular administration; cited from earlier work
[4] = system: Nrf2; assay: Superfusion of the hippocampus, Nrf2 levels; design: species or system Sprague-Dawley rats; details: 7,8-DHF 10 μM, 1 h; for cytosolic Nrf2 concentration: perfused hippocampi
Description: as §1
40 μg of nuclear or cytosolic protein (or 20 μg for cell experiments) was resolved by SDS-polyacrylamide gel electrophoresis in a 12% polyacrylamide gel. The bands were transferred to nitrocellulose or PVDF membranes (Invitrogen, France) for immunoblotting according to standard procedures. We used the following antibody dilutions: 1:250 for rabbit polyclonal antibodies against Nrf2 (Santa Cruz Biotechnology, France), 1:500 for rabbit polyclonal antibodies against Keap1 (Santa Cruz Biotechnology) and 1:5000 for rabbit polyclonal antibodies against aconitase 2 (Gene Tex, France). A dilution of 1:10,000 was used for the fluorescent IRDye® 800CW secondary antibody (ScienceTec, Paris, France). […] Protein bands were quantified with Odyssey® software (version 3.0, LI-COR Biosciences). […] Images were acquired with a digital camera-based imaging system (ChemiDoc, Biorad) and analyzed with Quantity One software (Bio-Rad). […]

[5] = system: Keap1; assay: Keap1 levels in hippocampal HT22 cells; format: cell-based; details: 30 min, BDNF 100 ng/ml or 7,8-DHF 10 μM
Description: as §1, with “A similar protocol was used for cell nuclear and cytosolic extracts.” left out
(§2) 40 μg of nuclear or cytosolic protein (or 20 μg for cell experiments) was resolved by SDS-polyacrylamide gel electrophoresis in a 12% polyacrylamide gel. […] Protein bands were quantified with Odyssey® software (version 3.0, LI-COR Biosciences). […] Images were acquired with a digital camera-based imaging system (ChemiDoc, Biorad) and analyzed with Quantity One software (Bio-Rad). […]

[6] = system: Keap1; assay: Superfusion of the hippocampus, Keap1 levels; design: species or system Sprague-Dawley rats; details: perfused hippocampi of DF and control rats; 7,8-DHF 10 μM, 1 h
Description: as §1, with “A similar protocol was used for cell nuclear and cytosolic extracts.” left out
as §2

O=c1c(O)c(-c2ccc(O)c(O)c2)oc2cc(O)cc(O)c12 [quercetin]
nuclear Nrf2 translocation [1]: induces a translocation of Nrf2 to the nucleus | Nrf2 cytosolic fraction [1]: decreased

CC(=O)N[C@@H](CS)C(=O)O [N-acetylcysteine (NAC), N-acetylcysteine]
depression scores [2]: induced a robust decrement in depression scores

O=c1cc(-c2ccccc2)oc2c(O)c(O)ccc12 [7,8-DHF, 7,8-dihydroxyflavone]
neuroanatomical alterations (hippocampal CA3 dendritic retraction, increase of amygdala dendritic length) [3]: can prevent neuroanatomical alterations | occurrence of depressive profile [3]: prevent | nuclear Nrf2 translocation ([4]; perfused hippocampi of defeated (DF, D5) and control rats): induced a marked translocation of Nrf2 to the nuclear compartment; also recorded: induced Nrf2 translocation to the nucleus to the same level in defeated and control animals | cytosolic Nrf2 concentration ([4]; DF animals (D5)): induced a decrease in cytosolic Nrf2 concentration; also recorded: decrease in cytosolic Nrf2 levels | cytosolic Nrf2 concentration ([4]; control (C) animals): tendency for this concentration to decrease | Keap1 levels [5]: not affected | Keap1 concentration [6]: no change in Keap1 concentration | nuclear Nrf2 translocation [1]: induced a marked increase; also recorded: produced similar effects on Nrf2

B1: BDNF: brain derived neurotrophic factor, added to HT22 cell medium at 100 ng/ml (protein, UniProt P23560 19-247, looked up)
Neurotrophic factor BDNF …: APMKEANIRGQGGLAYPGVRTHGTLESVNGPKAGSRGLTSLADTFEHVIEELLDEDQKVRPNEENNKDADLYTSRVMLSSQVPLEPPLLFLLEEYKNYLDAANMSMRVRRHSDPARRGELSVCDSISEWVTAADKKTAVDMSGGTVTVLEKVPVSKGQLKQYFYETKCNPMGYTKEGCRGIDKRHWNSQCRTTQSYVRALTMDSKKRIGWRFIRIDTSCVCTLTIKRGR
Keap1 levels [5]: not affected | nuclear Nrf2 translocation [1]: induced a marked increase; also recorded: produced similar effects on Nrf2
